One molecule from patent US20180106782A1, “HIGH THROUGHPUT CARDIOTOXICITY SCREENING PLATFORM” (The Board of Trustees of the Leland Stanford Junior …, priority 2016, published 2018) can be followed below.

For the test, the system named is μpatterned hiPSC-CMs. As to the kind of experiment: traction force microscopy of moving microbeads under beating μpatterned hiPSC-CMs. Format: cell-based, human. On the procedure:
We cultured single hiPSC-CMs on Matrigel micropatterns, which were transferred from printed glass coverslips onto the surface of polyacrylamide hydrogels with a stiffness of 10 kPa as previously described. (Ribeiro 2015a) In summary, Matrigel was diluted 1:10 in L15 medium (Thermo Fisher) and added to the top of elastomeric microstamps composed of polydimethylsiloxane 182 (Dow Corning) to be incubated at 3-4° C. overnight. Microstamps consisted of 2000 μm^2 rectangular features with an aspect ratio of 7:1 (length:width). We gently aspirated Matrigel after the overnight incubation, washed the stamps twice in L15 medium, aspirated L15 medium from the surface and dried it with a low stream of N2 gas. We then used microstamps to micropattern the Matrigel rectangular features on clean glass coverslips by microcontact printing. Matrigel on micropatterns was transferred to the surface of the polyacrylamide substrates during the gelation process by placing the patterned coverslip in contact with the top of the acrylamide prepolymer solution right before gelation. The aqueous prepolymer solution to be gelled was composed of acrylamide (Sigma-Aldrich)(10% w/v), bisacrylamide (Sigma-Aldrich) (0.1% w/v), ammonium persulfate (Sigma-Aldrich) (0.01% w/v) and N,N,N′,N′-tetramethylethylenediamine (Sigma-Aldrich) (0.1% v/v), HEPES (Thermo Fisher) (35 mM) and Milli-Q water. To calculate the forces generated by cells attached to polyacrylamide surfaces with traction force microscopy, green fluorescent microbeads with a diameter of 0.2 μm (Thermo Fisher) were also dispersed in the gel solution to yield a final concentration of 6.25×10^9 microbeads/mL. We gelled acrylamide on top of another coverslip functionalized with 3-(trimethoxysilyl)propyl methacrylate (Sigma-Aldrich), which binds polyacrylamide. […] Once polymerized, polyacrylamide substrates were incubated in PBS for at least 2 hours and the top coverslips were carefully removed with a razor blade. We seeded hiPSC-CMs on these polyacrylamide hydrogel substrates after washing them 3 times with PBS.
We passaged hiPSC-CMs onto micropatterned polyacrylamide devices at a density of 1000 cells/cm^2. For this purpose, cultures of thawed cells were washed twice with PBS and incubated in 1 mL of Accutase for 8-10 min. After observing cell detachment from the bottom of the wells, we quenched Accutase with Dulbecco's modified Eagle's medium (Thermo Fisher) containing 12% fetal bovine serum and counted the concentration of cells in medium with a hemocytometer. Then, we centrifuged cells at 83 rcf for 3 min at room temperature and aspirated the supernatant to resuspend the pelleted cells in the required volume of medium (RPMI-1640 cell-culture medium with 5 μM ROCK inhibitor) for adding 150 μL of cell solution to the surface of hydrogel devices at a concentration of 1000 cells/cm^2. After 1.5 h of incubation, we added 2.5 mL of medium to the well containing hydrogel devices and added fresh medium without ROCK inhibitor after 2 days. Single beating cells on Matrigel patterns were analyzed between 5-10 days after seeding.
We imaged the movement of beating hiPSC-CMs and the displacement of fluorescent microbeads embedded in polyacrylamide substrates with a Zeiss Axiovert 200M inverted microscope equipped with a Zeiss Axiocam MRm CCD camera. This microscope also contained an environmental chamber (PeCon) to set temperature at 37° C. Unless otherwise noted, we acquired microscopy videos while electrically pacing hiPSC-CMs with 10 ms-wide bipolar pulses of electric-field stimulation at 10-15 V with a frequency of 1 Hz (Myopacer, lonOptix).
To induce contractile changes in hiPSC-CMs, we added drugs known to affect CM contractile machinery to the culture medium. We analyzed the mechanical output of cells after adding drugs. […]

Where [1] appears, read: extracellular caffeine slowly increased up to 10 μM (FIG. 3C).

With `Cn1c(=O)c2c(ncn2C)n(C)c1=O` [caffeine], under setting [1], the “kinetics of relaxation right after adding caffeine” value is “sudden decrease” and the “mechanical output right after adding caffeine” value is reported as “sudden increase”. The “t̂ (time between peak velocity of contraction and peak velocity of relaxation)” value (low doses of caffeine slowly diffused through the culture media, single cell (FIG. 3B)) was “increase”. The “magnitude of the contractions that followed and kinetics of relaxation” value (with increasing caffeine extracellular concentration (FIG. 3)) is listed as “considerably decreased”.
